# US12459932B2, “KIF18A inhibitors” (AMGEN INC., priority 2018, dated 2025)
# Molecular target: T1, Recombinant human KIF18A (1-467 His-tagged) (Homo sapiens, UniProt Q8NI77)
# T1 construct: Recombinant human KIF18A (1-467 His-tagged) protein; His
# Assay: KIF18A Enzyme Assay: microtubule-stimulated ATPase activity (ADP-Glo)
# Type: biochemical
# Details: 30 nM KIF18A, 30 μg/mL pig microtubules, ATP 75 μM (Km), ADP-Glo luminescence
# Method: KIF18A Enzyme Assay: Microtubule-stimulated ATPase activity assay is used to measure KIF18A enzyme activity after treatment with compound. Compounds were 2-fold serially diluted in DMSO (Sigma Inc) over 22-point concentration range. […] The assay measures ADP formed from the ATPase reaction. […] Read luminescence using EnVision microplate reader with ultra-luminescence module (Perkin Elmer Inc). Concentration-response curve-fitting and IC50 determination was performed using Genedata Screener Software (Standard 15.0.1, Genedata Inc) with a four-parameter logistic regression fit model.
# T1 sequence (Q8NI77 1-467): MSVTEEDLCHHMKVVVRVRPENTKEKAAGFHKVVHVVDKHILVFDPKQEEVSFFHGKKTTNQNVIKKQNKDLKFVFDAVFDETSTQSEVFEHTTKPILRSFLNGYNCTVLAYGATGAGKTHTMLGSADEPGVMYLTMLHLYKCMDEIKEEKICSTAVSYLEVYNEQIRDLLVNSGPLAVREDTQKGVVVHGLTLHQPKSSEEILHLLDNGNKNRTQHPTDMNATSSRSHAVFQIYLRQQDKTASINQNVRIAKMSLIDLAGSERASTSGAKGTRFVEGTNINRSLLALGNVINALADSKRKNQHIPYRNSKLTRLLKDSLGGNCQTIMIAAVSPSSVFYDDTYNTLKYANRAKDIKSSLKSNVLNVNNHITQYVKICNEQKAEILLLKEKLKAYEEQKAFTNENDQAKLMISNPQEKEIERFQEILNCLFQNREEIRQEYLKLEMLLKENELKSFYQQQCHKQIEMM
# T1 sequence (P02550 whole entry partner): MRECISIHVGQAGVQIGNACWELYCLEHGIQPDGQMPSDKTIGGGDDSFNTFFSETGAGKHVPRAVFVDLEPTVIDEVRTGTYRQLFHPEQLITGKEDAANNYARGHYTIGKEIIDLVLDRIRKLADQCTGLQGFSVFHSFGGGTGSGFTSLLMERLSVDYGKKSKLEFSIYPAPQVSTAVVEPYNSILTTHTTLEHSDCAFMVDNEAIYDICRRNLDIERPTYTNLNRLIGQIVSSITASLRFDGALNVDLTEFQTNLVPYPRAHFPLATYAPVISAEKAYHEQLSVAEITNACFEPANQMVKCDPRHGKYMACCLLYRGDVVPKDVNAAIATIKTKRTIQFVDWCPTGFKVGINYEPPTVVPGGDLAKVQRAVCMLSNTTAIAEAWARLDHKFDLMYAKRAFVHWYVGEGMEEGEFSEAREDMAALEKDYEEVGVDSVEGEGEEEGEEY
# T1 sequence (P02554 whole entry partner): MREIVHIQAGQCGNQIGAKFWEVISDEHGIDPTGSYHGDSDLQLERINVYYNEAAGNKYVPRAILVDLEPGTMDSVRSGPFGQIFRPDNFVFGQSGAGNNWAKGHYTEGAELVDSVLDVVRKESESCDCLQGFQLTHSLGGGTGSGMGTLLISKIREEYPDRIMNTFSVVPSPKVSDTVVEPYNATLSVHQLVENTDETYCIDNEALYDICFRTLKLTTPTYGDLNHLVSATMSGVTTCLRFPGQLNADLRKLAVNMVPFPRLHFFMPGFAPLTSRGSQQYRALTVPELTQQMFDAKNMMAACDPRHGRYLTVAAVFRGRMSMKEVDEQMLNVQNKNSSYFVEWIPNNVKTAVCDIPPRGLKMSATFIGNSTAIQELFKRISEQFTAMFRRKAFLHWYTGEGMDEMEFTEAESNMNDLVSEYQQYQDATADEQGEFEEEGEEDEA
row,IC50 [nM],SMILES
1,32,"C[C@@H]1CN(c2cccc(NC(=O)c3ccc(S(=O)(=O)CCO)cc3N3CCC4(CC3)CC4)n2)CCO1 [Example 2-1, (R)-4-((2-Hydroxyethyl)sulfonyl)-N-(6-(2-methylmorpholino)pyridin-2-yl)-2-(6-azaspiro[2.5]octan-6-yl)benzamide]"
2,78,"C[C@@H]1CN(c2cccc(NC(=O)c3ccc(S(=O)(=O)C(C)(C)C)cc3N3CCC4(CC3)CC4)n2)CCO1 [Example 2-2, (R)-4-(tert-Butylsulfonyl)-N-(6-(2-methylmorpholino)pyridin-2-yl)-2-(6-azaspiro[2.5]octan-6-yl)benzamide]"
3,141,"C[C@@H]1CN(c2cccc(NC(=O)c3ccc(S(=O)(=O)C4(C)COC4)cc3N3CCC4(CC3)CC4)n2)CCO1 [Example 2-3, (R)-N-(6-(2-Methylmorpholino)pyridin-2-yl)-4-((3-methyloxetan-3-yl)sulfonyl)-2-(6-azaspiro[2.5]octan-6-yl)benzamide]"
4,38,"C[C@@H]1CN(c2cccc(NC(=O)c3ccc(S(=O)(=O)C4COC4)cc3N3CCC4(CC3)CC4)n2)CCO1 [Example 2-4, (R)-N-(6-(2-Methylmorpholino)pyridin-2-yl)-4-(oxetan-3-ylsulfonyl)-2-(6-azaspiro[2.5]octan-6-yl)benzamide]"
5,51,"C[C@@H]1CN(c2cccc(NC(=O)c3ccc(S(=O)(=O)C(C)(C)CO)cc3N3CCC4(CC3)CC4)n2)CCO1 [Example 2-5, (R)-4-((1-Hydroxy-2-methylpropan-2-yl)sulfonyl)-N-(6-(2-methylmorpholino)pyridin-2-yl)-2-(6-azaspiro[2.5]octan-6-yl)benzamide]"
6,110,"C[C@@H]1CN(c2cccc(NC(=O)c3ccc(S(=O)(=O)CC(C)(C)O)cc3N3CCC4(CC3)CC4)n2)CCO1 [Example 2-6, (R)-4-((2-Hydroxy-2-methylpropyl)sulfonyl)-N-(6-(2-methylmorpholino)pyridin-2-yl)-2-(6-azaspiro[2.5]octan-6-yl)benzamide]"
7,103,"Cc1cc(NC(=O)c2ccc(S(=O)(=O)CCO)cc2N2CCC3(CC2)CC3)nc(N2CCO[C@H](C)C2)c1 [Example 2-7, (R)-4-((2-Hydroxyethyl)sulfonyl)-N-(4-methyl-6-(2-methylmorpholino)pyridin-2-yl)-2-(6-azaspiro[2.5]octan-6-yl)benzamide]"
8,56,"CC1(S(=O)(=O)Nc2ccc(C(=O)Nc3cccc(N4CCC[C@H](O)C4)n3)c(N3CCC4(CC3)CC4)c2)CC1 [Example 3-1, (S)-N-(6-(3-Hydroxypiperidin-1-yl)pyridin-2-yl)-4-((1-methylcyclopropane)-1-sulfonamido)-2-(6-azaspiro[2.5]octan-6-yl)benzamide]"
9,359,"CC1(O)CCN(c2cccc(NC(=O)c3ccc(NS(=O)(=O)C4(C)CC4)cc3N3CCC4(CC3)CC4)n2)C1 (stereo not shown) [Example 3-2, N-(6-(3-Hydroxy-3-methylpyrrolidin-1-yl)pyridin-2-yl)-4-((1-methylcyclopropane)-1-sulfonamido)-2-(6-azaspiro[2.5]octan-6-yl)benzamide]"
10,96,"CC(C)(C)NS(=O)(=O)c1ccc(C(=O)Nc2cccc(N3CCC[C@H](O)C3)n2)c(N2CCC3(CC2)CC3)c1 [Example 3-3, (S)-4-(N-(tert-Butyl)sulfamoyl)-N-(6-(3-hydroxypiperidin-1-yl)pyridin-2-yl)-2-(6-azaspiro[2.5]octan-6-yl)benzamide]"

# Continued, molecule first:
row,SMILES,IC50 [nM]
1,"C[C@@H]1CN(c2cccc(NC(=O)c3ccc(S(=O)(=O)NC(C)(C)CO)cc3N3CCC4(CC3)CC4)n2)CCO1 [Example 1-4, (R)-4-(N-(1-Hydroxy-2-methylpropan-2-yl)sulfamoyl)-N-(6-(2-methylmorpholino)pyridin-2-yl)-2-(6-azaspiro[2.5]octan-6-yl)benzamide]",46
2,"CC(CO)NS(=O)(=O)c1ccc(C(=O)Nc2cccc(N3CCO[C@H](C)C3)n2)c(N2CCC3(CC2)CC3)c1 (stereo partly drawn) [Example 1-5, 4-(N-(1-Hydroxypropan-2-yl)sulfamoyl)-N-(6-((R)-2-methylmorpholino)pyridin-2-yl)-2-(6-azaspiro[2.5]octan-6-yl)benzamide]",47
3,"C[C@@H]1CN(c2cccc(NC(=O)c3ccc(S(=O)(=O)NC(C)(C)C)cc3N3CCC4(CC3)CC4)n2)CCO1 [Example 1-6, (R)-4-(N-(tert-Butyl)sulfamoyl)-N-(6-(2-methylmorpholino)pyridin-2-yl)-2-(6-azaspiro[2.5]octan-6-yl)benzamide]",51
4,"C[C@@H]1CN(c2cccc(NC(=O)c3ccc(S(=O)(=O)N4CCC4)cc3N3CCC4(CC3)CC4)n2)CCO1 [Example 1-7, (R)-4-(Azetidin-1-ylsulfonyl)-N-(6-(2-methylmorpholino)pyridin-2-yl)-2-(6-azaspiro[2.5]octan-6-yl)benzamide]",67
5,"Cc1cc(NC(=O)c2ccc(S(=O)(=O)NC3(C)COC3)cc2N2CCC3(CC2)CC3)nc(N2CCO[C@H](C)C2)c1 [Example 1-8, (R)-N-(4-Methyl-6-(2-methylmorpholino)pyridin-2-yl)-4-(N-(3-methyloxetan-3-yl)sulfamoyl)-2-(6-azaspiro[2.5]octan-6-yl)benzamide]",119
6,"CCC(CO)NS(=O)(=O)c1ccc(C(=O)Nc2cccc(N3CCO[C@H](C)C3)n2)c(N2CCC3(CC2)CC3)c1 (stereo partly drawn) [Example 1-9, 4-(N-(1-Hydroxybutan-2-yl)sulfamoyl)-N-(6-((R)-2-methylmorpholino)pyridin-2-yl)-2-(6-azaspiro[2.5]octan-6-yl)benzamide]",120
7,"Cc1cc(NC(=O)c2ccc(S(=O)(=O)NC(C)(C)C)cc2N2CCC3(CC2)CC3)nc(N2CCOCC2)c1 [Example 1-10, 4-(N-(tert-Butyl)sulfamoyl)-N-(4-methyl-6-morpholinopyridin-2-yl)-2-(6-azaspiro[2.5]octan-6-yl)benzamide]",222
8,"C[C@@H]1CN(c2cccc(NC(=O)c3ccc(S(=O)(=O)N4CC(C)(C)C4)cc3N3CCC4(CC3)CC4)n2)CCO1 [Example 1-11, (R)-4-((3,3-Dimethylazetidin-1-yl)sulfonyl)-N-(6-(2-methylmorpholino)pyridin-2-yl)-2-(6-azaspiro[2.5]octan-6-yl)benzamide]",566
9,"C[C@@H]1CN(c2cccc(NC(=O)c3ccc(S(=O)(=O)N4CC(C)(C#N)C4)cc3N3CCC4(CC3)CC4)n2)CCO1 [Example 1-12, (R)-4-((3-Cyano-3-methylazetidin-1-yl)sulfonyl)-N-(6-(2-methylmorpholino)pyridin-2-yl)-2-(6-azaspiro[2.5]octan-6-yl)benzamide]",458
10,"C[C@@H]1CN(c2cccc(NC(=O)c3ccc(S(=O)(=O)N4CC(C#N)C4)cc3N3CCC4(CC3)CC4)n2)CCO1 [Example 1-13, (R)-4-((3-Cyanoazetidin-1-yl)sulfonyl)-N-(6-(2-methylmorpholino)pyridin-2-yl)-2-(6-azaspiro[2.5]octan-6-yl)benzamide]",209
11,"CC(C)S(=O)(=O)c1ccc(C(=O)Nc2cccc(N3CCO[C@H](C)C3)n2)c(N2CCC3(CC2)CC3)c1 [Example 2, (R)-4-(Isopropylsulfonyl)-N-(6-(2-methylmorpholino)pyridin-2-yl)-2-(6-azaspiro[2.5]octan-6-yl)benzamide]",34
12,"CC1(S(=O)(=O)Nc2ccc(C(=O)Nc3cccc(N4CCC[C@@H](O)C4)n3)c(N3CCC4(CC3)CC4)c2)CC1 [Example 3, (R)-N-(6-(3-Hydroxypiperidin-1-yl)pyridin-2-yl)-4-((1-methylcyclopropane)-1-sulfonamido)-2-(6-azaspiro[2.5]octan-6-yl)benzamide]",46
